In patent US6740650B2, “Heterocyclic cytotoxic agents” (Rutgers, The State University of New Jersey, priority 2002, dated 2004):

How the values were obtained:
KB3-1 (oral) = test: MTT-microtiter plate tetrazolinium cytotoxicity assay, KB3-1; type: cell-based
KBV-1 (mdr-1) = test: MTT-microtiter plate tetrazolinium cytotoxicity assay, KBV-1; type: cell-based
KBH1.0 + V (H033342r.) = test: MTT-microtiter plate tetrazolinium cytotoxicity assay, KBH1.0 + V; type: cell-based; conditions: continuous exposure 3-4 days
HELA (cervical) = test: MTT-microtiter plate tetrazolinium cytotoxicity assay, HELA; type: cell-based; conditions: continuous exposure 3-4 days
HCT116 (colon) = test: MTT-microtiter plate tetrazolinium cytotoxicity assay, HCT116; type: cell-based
ZR-75-1 (breast) = test: MTT-microtiter plate tetrazolinium cytotoxicity assay, ZR-75-1; type: cell-based
human topoisomerase I = target: T1, human topoisomerase I (Homo sapiens, UniProt P11387); test: Test A. Topoisomerase I-mediated DNA cleavage assay; type: biochemical; conditions: concentration relative to 2,3-dimethoxy-8,9-methylenedioxybenzo[i]phenanthridine (=1.0) producing same cleavage (approx. 10% DNA fragmentation); 30 min, 37° C.
T1 construct: unnamed fusion partner (recombinant fusion protein, T7 expression system); made in house; host or cells: E. coli
T1 sequence (P11387 1-765): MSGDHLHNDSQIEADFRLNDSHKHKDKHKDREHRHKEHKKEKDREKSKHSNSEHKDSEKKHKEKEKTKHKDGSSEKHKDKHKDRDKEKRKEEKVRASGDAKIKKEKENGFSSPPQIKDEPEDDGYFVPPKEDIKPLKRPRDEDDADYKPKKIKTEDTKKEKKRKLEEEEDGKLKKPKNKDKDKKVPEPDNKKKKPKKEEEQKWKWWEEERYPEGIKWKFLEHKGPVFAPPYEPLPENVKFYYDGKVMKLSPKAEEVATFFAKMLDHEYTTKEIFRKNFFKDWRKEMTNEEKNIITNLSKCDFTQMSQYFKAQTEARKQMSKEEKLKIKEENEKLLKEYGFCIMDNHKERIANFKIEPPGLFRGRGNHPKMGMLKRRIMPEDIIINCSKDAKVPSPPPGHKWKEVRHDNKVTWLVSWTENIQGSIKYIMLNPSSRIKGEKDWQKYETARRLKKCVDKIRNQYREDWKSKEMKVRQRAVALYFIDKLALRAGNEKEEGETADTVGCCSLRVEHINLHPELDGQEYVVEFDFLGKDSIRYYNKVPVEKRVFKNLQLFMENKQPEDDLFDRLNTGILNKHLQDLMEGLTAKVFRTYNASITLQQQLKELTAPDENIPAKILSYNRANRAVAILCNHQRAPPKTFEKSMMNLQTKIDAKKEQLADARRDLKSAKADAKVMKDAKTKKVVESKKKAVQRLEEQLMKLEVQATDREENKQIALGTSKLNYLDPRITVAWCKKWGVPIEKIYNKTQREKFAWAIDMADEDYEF
Text: Test A. Topoisomerase I-mediated DNA Cleavage Assay
Human topoisomerase I was expressed in E. Coli and isolated as a recombinant fusion protein using a T7 expression system as described previously (Makhey, D. et al., Bioorg. Med. Chem., 2000, 8, 1-11). DNA topoisomerase I was purified from calf thymus gland as reported previously (Maniatis, T., et al., J. Molecular Cloning, a Laboratory Manual, Cold Spring Harbor Laboratory, Cold Spring Harbor, N.Y., 149-185). Plasmid YepG was also purified by the alkali lysis method followed by phenol deproteination and CsCl/ethidium isopycnic centrifugation method as described (Maniatis, T.; Fritsch, E. F.; Sambrook, J. Molecular Cloning, a Laboratory Manual; Cold Spring Harbor Laboratory: Cold Spring Harbor, N.Y. 1982; pp 149-185).^102 The end-labeling of the plasmid was accomplished by digestion with a restriction enzyme followed by end-filling with Klenow polymerase as previously described (Liu, L. F.; Rowe, T. C.; Yang, L.; Tewey, K. M.; Chen, G. L. “Cleavage of DNA by mammalian topoisomerase II,” J Biol. Chem. 1983, 258, 15365).^103 Cleavage assays were performed as previously reported (B. Gatto et al. Cancer Res., 1996, 56, 2795-2800).^13 The drug and the DNA in presence of topoisomerase I was incubated for 30 minutes at 37° C. After development of the gels, typically 24-hour exposure was used to obtain autoradiograms outlining the extent of DNA fragmentation. Topoisomerase I-mediated DNA cleavage values are reported as REC, Relative Effective Concentration, i.e. concentrations relative to 2,3-dimethoxy-8,9-methylenedioxybenzo[i]phenanthridine, whose value is arbitrarily assumed as 1.0, that are able to produce the same cleavage on the plasmid DNA in the presence of human topoisomerase I. Relative potency was based upon the relative amount of drug needed to induce approximately 10% DNA fragmentation. Assays were performed under the direction of Dr. L. F. Liu, Department of Pharmacology, The University of Medicine and Dentistry of New Jersey, Robert Wood Johnson Medical School, Piscataway, N.J. Data from Test A for representative compounds of the invention is shown in Table 1.

[1] = test system: human lymphoblast RPMI 8402; test: MTT-microtiter plate tetrazolinium cytotoxicity assay, RPMI 8402; type: cell-based; conditions: continuous exposure 3-4 days
Procedure: (§1) Test B. Inhibition of Cell Growth: MTT-microtiter Plate Tetrazolinium Cytotoxicity Assay (RPMI 8402, CPT-K5, U937, U937/CR Cells)
(§2) The cytotoxicity was determined using the MTT-microtiter plate tetrazolinium cytotoxicity assay (MTA) (See Chen A. Y. et al. Cancer Res. 1993, 53, 1332; Mosmann, T. J., J. Immunol. Methods 1983, 65, 55; and Carmichael, J. et al. Cancer Res. 1987, 47, 936). The human lymphoblast RPMI 8402 and its camptothecin-resistant variant cell line, CPT-K5 were provided by Dr. Toshiwo Andoh (Anchi Cancer Research Institute, Nagoya, Japan) (see Andoh, T.; Okada, K. “Drug resistance mechanisms of topoisomerase I drugs,” Adv. in Pharmacology 1994, 29B, 93). Human U-937 myeloid leukemia cells and U-937/CR cells were described by Rubin et al., J. Biol. Chem., 269, 2433-2439 (1994). The cytotoxicity assay was performed by using 96-well microtiter plates using 2000 cells/well, in […] of growth medium. Cells were grown in suspension at 37° C. in 5% CO2 and maintained by regular passage in RPMI medium supplemented with 10% heat-inactivated fetal bovine serum, L-glutamine (2 mM), penicillin (100U/mL), and streptomycin (0.1 mg/mL). For determination of IC50, cells were exposed continuously for 3-4 days to varying concentrations of drug, and MTT assays were performed at the end of the fourth day. […] All assays were performed at least twice in 6 replicate wells. All assays were performed under the direction of Dr. L. F. Liu, Department of Pharmacology, The University of Medicine and Dentistry of New Jersey, Robert Wood Johnson Medical School, Piscataway, N.J. Representative data is shown in Tables 2 and 3.

[2] = test system: CPT-K5 (camptothecin-resistant variant of RPMI 8402); test: MTT-microtiter plate tetrazolinium cytotoxicity assay, CPT-K5; type: cell-based; conditions: Homo sapiens, continuous exposure 3-4 days
Procedure: as §1, §2

[3] = test system: Human U-937 myeloid leukemia cells; test: MTT-microtiter plate tetrazolinium cytotoxicity assay, U937; type: cell-based; conditions: continuous exposure 3-4 days
Procedure: as §1, §2

U-937/CR cells = test: MTT-microtiter plate tetrazolinium cytotoxicity assay, U937/CR; type: cell-based; conditions: Homo sapiens, continuous exposure 3-4 days
Procedure: as §1, §2

[4] = Homo sapiens, KB 3-1, continuous exposure 3-4 days
[5] = Homo sapiens, KB-V1, continuous exposure 3-4 days
[6] = Homo sapiens, HCT-116, continuous exposure 3-4 days
[7] = Homo sapiens, ZR-75-1, continuous exposure 3-4 days

Compound	Topoisomerase I-mediated DNA cleavage (REC, Relative Effective Concentration) (human topoisomerase I)	melting point [°C]	IC50 (KB3-1 (oral); continuous exposure 3-4 days) [nM]	IC50 (KBV-1 (mdr-1); continuous exposure 3-4 days) [nM]	IC50 (KBH1.0 + V (H033342r.)) [nM]	IC50 (HELA (cervical)) [nM]	IC50 (HCT116 (colon); continuous exposure 3-4 days) [nM]	IC50 (ZR-75-1 (breast); continuous exposure 3-4 days) [nM]	IC50 (KB3-1 (oral); [4]) [nM]	IC50 (KBV-1 (mdr-1); [5]) [nM]	IC50 (HELA (cervical); Homo sapiens, HeLa) [nM]	IC50 (HCT116 (colon); [6]) [nM]	IC50 (ZR-75-1 (breast); [7]) [nM]	IC50 [1] [µM]	IC50 [2] [µM]	IC50 [3] [µM]	IC50 (U-937/CR cells) [µM]
CC[C@@]1(O)C(=O)OCc2c1cc1n(c2=O)Cc2cc3ccccc3nc2-1 [CPT]			6	6	7	4	3	4									
COc1cc2ccc3c4cc(OC)c(OC)cc4nnc3c2cc1OC [Compound 19, 2,3,8,9-Tetramethoxy-dibenzo[c,h]cinnoline]	>100													10	> 10	10	20
COc1cc2nnc3c4cc(OC)c(OC)cc4ccc3c2cc1O [Compound 34, 9-Hydroxy-2,3,8-trimethoxydibenzo[c,h]cinnoline]														> 100	> 100	> 100	> 100
COc1ccc2c(ccc3c4cc5c(cc4nnc23)OCO5)c1 [Compound 43, 2-Methoxy-8,9-methylenedioxydibenzo[c,h]cinnoline]		258 to 260												> 100	52	38	30
COc1ccc2ccc3c4cc5c(cc4nnc3c2c1)OCO5 [Compound 44, 3-Methoxy-8,9-methylenedioxydibenzo[c,h]cinnoline]		259 to 261												0.5	1.3	43	0.9
CCOc1ccc(-c2nc3ccc(-c4nc5ccc(N6CCN(C)CC6)cc5[nH]4)cc3[nH]2)cc1 [HO33342]			250	3000	> 10000	600	220	60									
CC[C@]1(O)C[C@@H]2CN(CCc3c([nH]c4ccccc34)[C@@](C(=O)OC)(c3cc4c(cc3OC)N(C)[C@H]3[C@@](O)(C(=O)OC)[C@H](OC(C)=O)[C@]5(CC)C=CCN6CC[C@]43[C@@H]65)C2)C1 [VBS, Vinblastine]					2.2				3	400	2	3	3				

The next lines start with results.

Topoisomerase I-mediated DNA cleavage (REC, Relative Effective Concentration) (human topoisomerase I)	melting point [°C]	Compound	IC50 (KB3-1 (oral); continuous exposure 3-4 days) [nM]	IC50 (KBV-1 (mdr-1); continuous exposure 3-4 days) [nM]	IC50 (KBH1.0 + V (H033342r.)) [nM]	IC50 (HELA (cervical)) [nM]	IC50 (HCT116 (colon); continuous exposure 3-4 days) [nM]	IC50 (ZR-75-1 (breast); continuous exposure 3-4 days) [nM]	IC50 (KB3-1 (oral); [4]) [nM]	IC50 (KBV-1 (mdr-1); [5]) [nM]	IC50 (HELA (cervical); Homo sapiens, HeLa) [nM]	IC50 (HCT116 (colon); [6]) [nM]	IC50 (ZR-75-1 (breast); [7]) [nM]	IC50 [1] [µM]	IC50 [2] [µM]	IC50 [3] [µM]	IC50 (U-937/CR cells) [µM]
5		COc1cc2ccc3c4ccccc4nnc3c2cc1OC [Compound 6, 2,3-Dimethoxy-dibenzo[c,h]cinnoline]			5000				6000	4000	6000	3200	4000	3	10	3	3
0.01		COc1cc2ccc3c4cc5c(cc4nnc3c2cc1OC)OCO5 [Compound 14, 2,3-Dimethoxy-8,9-methylenedioxy-dibenzo[c,h]cinnoline]			60				70	80	50	35	40	0.06	6	0.06	3
	244 to 246	COc1cc2ccc3c4cc(OCc5ccccc5)c(OC)cc4nnc3c2cc1OC [Compound 42, 9-Benzyloxy-2,3,8-trimethoxydibenzo[c,h]cinnoline]												38	61	> 100	40
2	244 to 246	COc1ccc2c(c1)nnc1c3cc(OC)c(OC)cc3ccc21 [Compound 60, 2,3,8-Trimethoxydibenzo[c,h]cinnoline]												2	4	1.9	2.5
10	215 to 217	COc1ccc2nnc3c4cc(OC)c(OC)cc4ccc3c2c1 [Compound 61, 2,3,9-Trimethoxydibenzo[c,h]cinnoline]												4	31	3	6
